{"source": "patent US20040072139A1", "about": "“Photodynamic treatment and uv-b-irradiation of a thrombocyte suspension” (priority 2000, published 2004)", "key": {"SV-40": {"system": "SV-40", "type": "cell-based, simian virus-40"}, "BVDV": {"system": "BVDV", "type": "cell-based, bovine viral diarrhoea virus"}, "platelets [1]": {"system": "platelets", "assay": "Collagen-induced aggregation of treated platelet suspensions"}, "HIV-1": {"system": "HIV-1", "type": "cell-based, human immunodeficiency virus, Type 1"}, "VSV": {"system": "VSV", "type": "cell-based, vesicular stomatitis virus"}, "SHV-1": {"system": "SHV-1", "type": "cell-based, suid herpesvirus 1"}, "T-lymphocytes": {"system": "T-lymphocytes", "assay": "Inactivation of T lymphocytes in PC, ConA-stimulated BRDU proliferation assay", "type": "cell-based", "conditions": "for Absorption OD450 nm (BRDU incorporation rate): ConA activation, three days cultivation"}, "platelets [2]": {"system": "platelets", "assay": "Hypotonic shock reaction (HSR) of treated platelet suspensions"}, "CSFV": {"system": "CSFV", "type": "cell-based, classical swine fever virus"}, "SFV": {"system": "SFV", "type": "cell-based, Semliki Forest virus"}, "[3]": {"conditions": "Experiment 1, Day 1 after treatment, thionine/light + UV-B 2.4 J/cm^2"}, "[4]": {"conditions": "Experiment 1, Day 1 after treatment, thionine/light alone"}, "[5]": {"conditions": "Experiment 1, Day 3 after treatment, thionine/light + UV-B 2.4 J/cm^2"}, "[6]": {"conditions": "Experiment 1, Day 3 after treatment, thionine/light alone"}, "[7]": {"conditions": "Experiment 2, Day 1 after treatment, thionine/light + UV-B 2.4 J/cm^2"}, "[8]": {"conditions": "Experiment 2, Day 1 after treatment, thionine/light alone"}, "[9]": {"conditions": "Experiment 2, Day 3 after treatment, thionine/light + UV-B 2.4 J/cm^2"}, "[10]": {"conditions": "Experiment 2, Day 3 after treatment, thionine/light alone"}, "[11]": {"conditions": "Experiment 3, Day 1 after treatment, thionine/light + UV-B 2.4 J/cm^2"}, "[12]": {"conditions": "Experiment 3, Day 1 after treatment, thionine/light alone"}, "[13]": {"conditions": "Experiment 3, Day 3 after treatment, thionine/light + UV-B 2.4 J/cm^2"}, "[14]": {"conditions": "Experiment 3, Day 3 after treatment, thionine/light alone"}, "[15]": {"conditions": "combined treatment with thionine/light and UV-B compared with photodynamic treatment alone"}}, "data": [{"smiles": "Cl.N=c1ccc2nc3ccc(N)cc3sc-2c1", "note": "[Thionine/light, Thionine]", "values": [{"measurement": "Infectivity (in words)", "setting": "SV-40", "value": "still not completely eliminated"}, {"measurement": "Reduction of virus titre", "setting": "SV-40", "value": 3.9, "unit": "log10TCID50"}, {"measurement": "Inactivation of virus (in words)", "setting": "BVDV", "value": "completely inactivated"}, {"measurement": "Reduction of virus titre", "setting": "BVDV", "value": "≧4.9 log10TCID50"}, {"measurement": "collagen-induced aggregation", "setting": "platelets [1]; [3]", "value": 69.75, "unit": "%"}, {"measurement": "collagen-induced aggregation", "setting": "platelets [1]; [4]", "value": 73.25, "unit": "%"}, {"measurement": "collagen-induced aggregation", "setting": "platelets [1]; [5]", "value": 16.75, "unit": "%"}, {"measurement": "collagen-induced aggregation", "setting": "platelets [1]; [6]", "value": 13.75, "unit": "%"}, {"measurement": "collagen-induced aggregation", "setting": "platelets [1]; [7]", "value": 76.67, "unit": "%"}, {"measurement": "collagen-induced aggregation", "setting": "platelets [1]; [8]", "value": 84.67, "unit": "%"}, {"measurement": "collagen-induced aggregation", "setting": "platelets [1]; [9]", "value": 53.50, "unit": "%"}, {"measurement": "collagen-induced aggregation", "setting": "platelets [1]; [10]", "value": 27.67, "unit": "%"}, {"measurement": "collagen-induced aggregation", "setting": "platelets [1]; [11]", "value": 58.33, "unit": "%"}, {"measurement": "collagen-induced aggregation", "setting": "platelets [1]; [12]", "value": 69.67, "unit": "%"}, {"measurement": "collagen-induced aggregation", "setting": "platelets [1]; [13]", "value": 30.33, "unit": "%"}, {"measurement": "collagen-induced aggregation", "setting": "platelets [1]; [14]", "value": 15.67, "unit": "%"}, {"measurement": "Influence on collagen-induced aggregation (in words)", "setting": "platelets [1]; [15]", "value": "neither the HSR (hypotonic shock reaction) nor the collagen-induced aggregation of platelet concentrates is substantially more strongly influenced"}, {"measurement": "Reduction of virus titre", "setting": "HIV-1", "value": "≧5.7 log10TCID50"}, {"measurement": "Infectivity (in words)", "setting": "VSV", "value": "still not completely eliminated"}, {"measurement": "Reduction of virus titre", "setting": "VSV", "value": 4.4, "unit": "log10TCID50"}, {"measurement": "Reduction of virus titre", "setting": "SHV-1", "value": "≧3.6 log10TCID50"}, {"measurement": "UV-B irradiation time required for complete inactivation of the cells", "setting": "T-lymphocytes; PC additionally treated with thionine/light (2 μM, 30 min), at least 4 min with UV-B alone", "value": "approximately 3 min"}, {"measurement": "Absorption OD450 nm (BRDU incorporation rate)", "setting": "T-lymphocytes; Th/light (2 μM, 30 min) then UV-B 0.6 J/cm^2", "value": 1.020}, {"measurement": "Absorption OD450 nm (BRDU incorporation rate)", "setting": "T-lymphocytes; Th/light (2 μM, 30 min) then UV-B 0.9 J/cm^2", "value": 0.387}, {"measurement": "Absorption OD450 nm (BRDU incorporation rate)", "setting": "T-lymphocytes; Th/light (2 μM, 30 min) then UV-B 1.2 J/cm^2", "value": 0.240}, {"measurement": "Influence on the proliferation of the cells (in words)", "setting": "T-lymphocytes; thionine/light alone (2 μM, 30 min)", "value": "no influence"}, {"measurement": "HSR", "setting": "platelets [2]; [3]", "value": 47.86, "unit": "%"}, {"measurement": "HSR", "setting": "platelets [2]; [4]", "value": 65.49, "unit": "%"}, {"measurement": "HSR", "setting": "platelets [2]; [5]", "value": 51.16, "unit": "%"}, {"measurement": "HSR", "setting": "platelets [2]; [6]", "value": 49.16, "unit": "%"}, {"measurement": "HSR", "setting": "platelets [2]; [7]", "value": 42.37, "unit": "%"}, {"measurement": "HSR", "setting": "platelets [2]; [8]", "value": 56.24, "unit": "%"}, {"measurement": "HSR", "setting": "platelets [2]; [9]", "value": 30.26, "unit": "%"}, {"measurement": "HSR", "setting": "platelets [2]; [10]", "value": 52.61, "unit": "%"}, {"measurement": "HSR", "setting": "platelets [2]; [11]", "value": 54.45, "unit": "%"}, {"measurement": "HSR", "setting": "platelets [2]; [12]", "value": 69.30, "unit": "%"}, {"measurement": "HSR", "setting": "platelets [2]; [13]", "value": 48.31, "unit": "%"}, {"measurement": "HSR", "setting": "platelets [2]; [14]", "value": 55.49, "unit": "%"}, {"measurement": "Influence on HSR (in words)", "setting": "platelets [2]; [15]", "value": "neither the HSR (hypotonic shock reaction) nor the collagen-induced aggregation of platelet concentrates is substantially more strongly influenced"}, {"measurement": "Inactivation of virus (in words)", "setting": "CSFV", "value": "completely inactivated"}, {"measurement": "Reduction of virus titre", "setting": "CSFV", "value": "≧5.5 log10TCID50"}, {"measurement": "Inactivation of virus (in words)", "setting": "SFV", "value": "completely inactivated"}, {"measurement": "Reduction of virus titre", "setting": "SFV", "value": "≧5.2 log10TCID50"}]}]}
